Assay results: BindingDB's records for doi:10.1016/j.bmcl.2017.04.089 (Mcdaniel College, 2017)

Target: Protein mono-ADP-ribosyltransferase PARP14 (Homo sapiens, UniProt Q460N5)
Assay: Inhibition of recombinant human His6-tagged PARP14 catalytic/WWE domain (1459 to 1801 residues) expressed in Escherichia coli BL21(DE3) preincubated for 15 mins followed by biotinylated NAD+ addition by chemiluminescence assay

Sequence of Protein mono-ADP-ribosyltransferase PARP14 (Q460N5 whole entry, the tested form may be a part): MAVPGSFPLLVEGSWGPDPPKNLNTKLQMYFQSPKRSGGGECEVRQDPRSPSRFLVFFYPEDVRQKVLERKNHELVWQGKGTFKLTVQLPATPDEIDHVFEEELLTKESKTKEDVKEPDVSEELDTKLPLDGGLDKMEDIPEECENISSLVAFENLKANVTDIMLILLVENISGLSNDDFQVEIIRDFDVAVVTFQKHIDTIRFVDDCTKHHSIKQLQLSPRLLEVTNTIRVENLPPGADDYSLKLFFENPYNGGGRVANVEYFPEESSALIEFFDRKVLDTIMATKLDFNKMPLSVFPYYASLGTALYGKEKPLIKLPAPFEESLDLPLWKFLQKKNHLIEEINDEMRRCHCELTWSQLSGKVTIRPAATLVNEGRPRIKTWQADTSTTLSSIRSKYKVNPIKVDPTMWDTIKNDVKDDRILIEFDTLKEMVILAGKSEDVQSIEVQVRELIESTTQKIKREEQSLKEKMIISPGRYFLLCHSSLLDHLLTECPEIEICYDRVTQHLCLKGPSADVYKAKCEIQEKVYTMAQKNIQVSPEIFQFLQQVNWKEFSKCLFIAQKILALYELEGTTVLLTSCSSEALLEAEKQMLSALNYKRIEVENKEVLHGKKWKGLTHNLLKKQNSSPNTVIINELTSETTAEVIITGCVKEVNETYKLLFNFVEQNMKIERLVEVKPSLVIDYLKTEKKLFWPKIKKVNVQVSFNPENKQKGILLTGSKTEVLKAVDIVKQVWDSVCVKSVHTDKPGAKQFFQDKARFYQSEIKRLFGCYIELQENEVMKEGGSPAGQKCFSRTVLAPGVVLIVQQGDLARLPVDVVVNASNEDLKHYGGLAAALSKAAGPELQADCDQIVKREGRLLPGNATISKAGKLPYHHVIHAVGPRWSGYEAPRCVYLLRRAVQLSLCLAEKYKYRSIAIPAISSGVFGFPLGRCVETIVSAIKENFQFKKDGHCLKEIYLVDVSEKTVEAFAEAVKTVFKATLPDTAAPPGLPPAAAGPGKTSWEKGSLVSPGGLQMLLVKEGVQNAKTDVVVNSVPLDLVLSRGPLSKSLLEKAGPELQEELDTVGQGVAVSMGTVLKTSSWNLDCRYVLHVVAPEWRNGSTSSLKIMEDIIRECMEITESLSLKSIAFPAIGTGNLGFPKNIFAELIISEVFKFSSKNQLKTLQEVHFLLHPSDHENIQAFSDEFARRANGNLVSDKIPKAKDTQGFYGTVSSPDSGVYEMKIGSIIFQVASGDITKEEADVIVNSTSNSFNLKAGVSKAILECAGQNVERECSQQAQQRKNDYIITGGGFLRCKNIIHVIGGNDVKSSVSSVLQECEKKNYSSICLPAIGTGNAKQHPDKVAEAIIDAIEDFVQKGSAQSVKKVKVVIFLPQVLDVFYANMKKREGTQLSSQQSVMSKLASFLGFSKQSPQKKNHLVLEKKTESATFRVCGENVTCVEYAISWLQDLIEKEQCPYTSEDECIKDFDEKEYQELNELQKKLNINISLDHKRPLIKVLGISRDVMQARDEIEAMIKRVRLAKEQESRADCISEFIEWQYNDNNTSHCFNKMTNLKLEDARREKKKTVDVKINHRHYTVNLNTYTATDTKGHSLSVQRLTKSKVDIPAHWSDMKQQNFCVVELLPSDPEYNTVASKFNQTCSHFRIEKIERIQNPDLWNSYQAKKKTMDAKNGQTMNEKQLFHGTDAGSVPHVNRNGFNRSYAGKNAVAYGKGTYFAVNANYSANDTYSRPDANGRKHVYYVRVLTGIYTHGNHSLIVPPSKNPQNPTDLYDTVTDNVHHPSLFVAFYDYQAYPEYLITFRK

- IC50: 1020 nM
SMILES: NC(=O)c1cccc(NC(=O)/C=C\C(=O)N2CCCC(Oc3ccccc3)C2)c1 (stereo unspecified)
